PubChem BioAssay AID248 (DTP/NCI, 2004)
Where “and” joins values, the source holds several entries; their conditions need not be identical. Equal values may be shown once. Inconclusive results and toxic doses are left out.

Test system: L1210 leukemia ip in BDF1 mice, survival T/C
Experiment: NCI In Vivo Anticancer Drug Screen. Data for tumor model L1210 Leukemia (intraperitoneal) in B6D2F1 (BDF1) mice
Settings: endpoint: mean survival time, higher = longer survival
Summary of the method: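 Each compound was tested against a transplantable tumor grown in mice. The endpoint was survival, with treated animals benchmarked against vehicle controls as a simple ratio.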

[1] = dose: 100.0 mg/kg/injection, schedule: Q04DX003 (ip), vehicle: Klucel (hydroxypropylcellulose) (HPC)
[2] = dose: 200.0 mg/kg/injection, schedule: Q04DX003 (ip), vehicle: Klucel (hydroxypropylcellulose) (HPC)
[3] = dose: 400.0 mg/kg/injection, schedule: Q04DX003 (ip), vehicle: Klucel (hydroxypropylcellulose) (HPC)
[4] = dose: 100.0 mg/kg/injection, schedule: Q01DX009 (ip), vehicle: Klucel (hydroxypropylcellulose) (HPC)
[5] = dose: 100.0 mg/kg/injection, schedule: Q01DX009 (ip), vehicle: saline with Tween-80
[6] = dose: 200.0 mg/kg/injection, schedule: Q01DX009 (ip), vehicle: saline with Tween-80
[7] = dose: 400.0 mg/kg/injection, schedule: Q01DX009 (ip), vehicle: saline with Tween-80
[8] = dose: 25.0 mg/kg/injection, schedule: Q01DX009 (ip), vehicle: saline with Tween-80
[9] = dose: 100.0 mg/kg/injection, schedule: Q04DX002 (ip), vehicle: Klucel (hydroxypropylcellulose) (HPC)
[10] = dose: 200.0 mg/kg/injection, schedule: Q04DX002 (ip), vehicle: Klucel (hydroxypropylcellulose) (HPC)
[11] = dose: 400.0 mg/kg/injection, schedule: Q04DX002 (ip), vehicle: Klucel (hydroxypropylcellulose) (HPC)
[12] = dose: 100.0 mg/kg/injection, schedule: Q04DX003 (ip), vehicle: saline
[13] = dose: 200.0 mg/kg/injection, schedule: Q04DX003 (ip), vehicle: saline
[14] = dose: 400.0 mg/kg/injection, schedule: Q04DX003 (ip), vehicle: saline
[15] = dose: 50.0 mg/kg/injection, schedule: Q01DX009 (ip), vehicle: saline with Tween-80

CC(C(=O)c1cccs1)C(O)(C(F)(F)F)C(F)(F)F (configuration not stated)
T/C [1]: 95 % of control
T/C [2]: 95 % of control
T/C [3]: 103 % of control

NC(=O)N1CCN(c2ccccc2)CC1
T/C [1]: 95 % of control
T/C [2]: 97 % of control
T/C [3]: 101 % of control

COc1ccc(OC)c(NC(=O)c2c(Br)c(Br)c(Br)c(Br)c2C(=O)O)c1
T/C [4]: 109 % of control
T/C (dose: 200.0 mg/kg/injection, schedule: Q01DX009 (ip), vehicle: Klucel (hydroxypropylcellulose) (HPC)): 97 % of control

Cc1cc(NS(=O)(=O)c2ccc(N=Nc3c(N)[nH]c(=S)[nH]c3=O)cc2)nc(C)n1
T/C (dose: 100.0 mg/kg/injection, schedule: Q01DX001 (ip), vehicle: saline): 96 % of control
T/C (dose: 200.0 mg/kg/injection, schedule: Q01DX001 (ip), vehicle: saline): 100 % of control

CC(=O)COc1ccccc1-c1ccccc1
T/C [5]: 97 % of control
T/C [6]: 101 % of control
T/C [7]: 100 % of control

CCCCS(=O)(=O)c1nc2ccc([N+](=O)[O-])cc2s1
T/C (dose: 100.0 mg/kg/injection, schedule: Q04DX002 (ip), vehicle: saline with Tween-80): 92 % of control
T/C (dose: 200.0 mg/kg/injection, schedule: Q04DX002 (ip), vehicle: saline with Tween-80): 95 % of control

[C-]#[N+]C(C)(CC)c1ccccc1 (configuration not stated)
T/C (dose: 6.25 mg/kg/injection, schedule: Q01DX009 (ip), vehicle: saline with Tween-80): 93 % of control
T/C (dose: 6.25 mg/kg/injection, schedule: Q04DX003 (ip), vehicle: acetone): 96 % of control
T/C (dose: 12.5 mg/kg/injection, schedule: Q01DX001 (ip), vehicle: acetone): 91 % of control
T/C (dose: 12.5 mg/kg/injection, schedule: Q01DX009 (ip), vehicle: saline with Tween-80): 95 % of control
T/C (dose: 12.5 mg/kg/injection, schedule: Q04DX003 (ip), vehicle: acetone): 108 % of control
T/C (dose: 25.0 mg/kg/injection, schedule: Q01DX001 (ip), vehicle: acetone): 96 % of control
T/C [8]: 95 % of control
T/C (dose: 25.0 mg/kg/injection, schedule: Q04DX003 (ip), vehicle: acetone): 100 % of control

CC(=O)NC1(C(=O)O)CSSC1
T/C (dose: 50.0 mg/kg/injection, schedule: Q01DX005 (ip), vehicle: saline): 102 % of control
T/C (dose: 100.0 mg/kg/injection, schedule: Q01DX005 (ip), vehicle: saline): 100 % of control
T/C (dose: 200.0 mg/kg/injection, schedule: Q01DX005 (ip), vehicle: saline): 93 % of control
T/C (dose: 400.0 mg/kg/injection, schedule: Q01DX005 (ip), vehicle: saline): 102 % of control

NC1=NC(=O)/C(=C/c2ccccc2)S1
T/C (dose: 100.0 mg/kg/injection, schedule: Q01DX001 (ip), vehicle: carboxymethylcellulose (CMC)): 100 % of control
T/C [5]: 90 % of control
T/C (dose: 200.0 mg/kg/injection, schedule: Q01DX001 (ip), vehicle: carboxymethylcellulose (CMC)): 89 % of control
T/C [6]: 91 % of control
T/C (dose: 400.0 mg/kg/injection, schedule: Q01DX001 (ip), vehicle: carboxymethylcellulose (CMC)): 86 % of control

Nc1ccc(N)c(C(=O)O)c1
T/C (dose: 75.0 mg/kg/injection, schedule: Q01DX001 (ip), vehicle: other): 98 % of control
T/C (dose: 150.0 mg/kg/injection, schedule: Q01DX001 (ip), vehicle: other): 93 % of control

COc1cccc2c1C(=O)c1c(O)c3c(c(O)c1C2=O)C[C@@](O)(C(=O)COC(=O)Cc1ccccc1)C[C@@H]3OC1CC(N)C(O)C(C)O1 (some centres not stated)
T/C (dose: 1.3 mg/kg/injection, schedule: Q01DX009 (ip), vehicle: saline): 152 % of control
T/C (dose: 2.0 mg/kg/injection, schedule: Q01DX009 (ip), vehicle: saline): 167 % of control
T/C (dose: 3.0 mg/kg/injection, schedule: Q01DX009 (ip), vehicle: saline): 173 % of control
T/C (dose: 6.8 mg/kg/injection, schedule: Q01DX009 (ip), vehicle: saline with Tween-80): 104 % of control

CC(C)(O)CCC1=C(O)c2ccccc2C(=O)C1=O
T/C [1]: 100 % of control
T/C [2]: 94 % of control

CC(CC(=O)c1cc(Cl)ccc1O)CC(C)(C)C (configuration not stated)
T/C (dose: 75.0 mg/kg/injection, schedule: Q01DX009 (ip), vehicle: Klucel (hydroxypropylcellulose) (HPC)): 114 % of control
T/C [9]: 97 % of control
T/C (dose: 150.0 mg/kg/injection, schedule: Q01DX009 (ip), vehicle: Klucel (hydroxypropylcellulose) (HPC)): 97 % of control
T/C [10]: 93 % of control
T/C (dose: 300.0 mg/kg/injection, schedule: Q01DX009 (ip), vehicle: Klucel (hydroxypropylcellulose) (HPC)): 100 % of control
T/C [11]: 104 % of control

CCCCCCCCC1SC1CCCCCCCC(=O)N(C)c1ccccc1 (configuration not stated)
T/C [12]: 97 % of control
T/C [13]: 99 % of control
T/C [14]: 94 % of control

Cc1cc(OC(=O)Nc2cc([N+](=O)[O-])ccc2F)cc(C)c1Cl
T/C [1]: 89 % of control
T/C [2]: 91 % of control
T/C [3]: 93 % of control

Cc1cccn1C(C)c1ccccc1 (configuration not stated)
T/C (dose: 100.0 mg/kg/injection, schedule: Q04DX003 (ip), vehicle: saline with Tween-80): 97 % of control
T/C (dose: 200.0 mg/kg/injection, schedule: Q04DX003 (ip), vehicle: saline with Tween-80): 94 % of control
T/C (dose: 400.0 mg/kg/injection, schedule: Q04DX003 (ip), vehicle: saline with Tween-80): 97 % of control

CCOC(=O)N/N=C\C(C)=N\NC(=O)OCC
T/C (dose: 15.0 mg/kg/injection, schedule: Q01DX Z (ip), vehicle: carboxymethylcellulose (CMC)): 105 % of control
T/C (dose: 30.0 mg/kg/injection, schedule: Q01DX Z (ip), vehicle: carboxymethylcellulose (CMC)): 98 % of control
T/C (dose: 60.0 mg/kg/injection, schedule: Q01DX Z (ip), vehicle: carboxymethylcellulose (CMC)): 97 % of control and 105 % of control
T/C (dose: 120.0 mg/kg/injection, schedule: Q01DX Z (ip), vehicle: carboxymethylcellulose (CMC)): 94 % of control and 97 % of control
T/C (dose: 240.0 mg/kg/injection, schedule: Q01DX Z (ip), vehicle: carboxymethylcellulose (CMC)): 96 % of control
T/C (dose: 480.0 mg/kg/injection, schedule: Q01DX Z (ip), vehicle: carboxymethylcellulose (CMC)): 87 % of control

NC(Cc1cc(Cl)c(O)c(Cl)c1)C(=O)O (configuration not stated)
T/C (dose: 100.0 mg/kg/injection, schedule: Q01DX009 (ip), vehicle: saline): 103 % of control
T/C (dose: 150.0 mg/kg/injection, schedule: Q01DX009 (ip), vehicle: saline): 108 % of control
T/C (dose: 200.0 mg/kg/injection, schedule: Q01DX009 (ip), vehicle: saline): 103 % of control

Cc1cc(OCCOC(=O)Nc2cccc(C(F)(F)F)c2)cc(C)c1Cl
T/C [8]: 102 % of control
T/C [15]: 102 % of control
T/C [5]: 98 % of control and 118 % of control
T/C [6]: 93 % of control
T/C [7]: 91 % of control

CN(C)CCN(C)C(=O)C1C(c2ccccc2)C1c1ccccc1 (configuration not stated)
T/C (dose: 12.5 mg/kg/injection, schedule: Q04DX002 (ip), vehicle: Klucel (hydroxypropylcellulose) (HPC)): 100 % of control
T/C (dose: 25.0 mg/kg/injection, schedule: Q04DX002 (ip), vehicle: Klucel (hydroxypropylcellulose) (HPC)): 100 % of control
T/C (dose: 50.0 mg/kg/injection, schedule: Q04DX002 (ip), vehicle: Klucel (hydroxypropylcellulose) (HPC)): 87 % of control

Cc1cccc(C)c1N1C(=O)C2C(C1=O)C1(Cl)C(Cl)=C(Cl)C2(Cl)C1(Cl)Cl (configuration not stated)
T/C (dose: 50.0 mg/kg/injection, schedule: Q01DX009 (ip), vehicle: Klucel (hydroxypropylcellulose) (HPC)): 95 % of control
T/C [4]: 101 % of control
T/C [1]: 114 % of control
T/C [2]: 101 % of control

CCOc1ccc(NC(=S)NC(=O)C(C)Oc2ccccc2)cc1 (configuration not stated)
T/C [15]: 102 % of control
T/C (dose: 800.0 mg/kg/injection, schedule: Q04DX002 (ip), vehicle: saline with Tween-80): 96 % of control and 101 % of control

CC(C)(C)c1ccc(SC(=O)NCCCl)cc1
T/C (dose: 20.0 mg/kg/injection, schedule: Q04DX003 (ip), vehicle: Klucel (hydroxypropylcellulose) (HPC)): 97 % of control
T/C (dose: 40.0 mg/kg/injection, schedule: Q04DX003 (ip), vehicle: Klucel (hydroxypropylcellulose) (HPC)): 98 % of control
T/C (dose: 80.0 mg/kg/injection, schedule: Q04DX003 (ip), vehicle: Klucel (hydroxypropylcellulose) (HPC)): 90 % of control
T/C [1]: 106 % of control
T/C [2]: 91 % of control

CC(=O)NCCOc1ccc(N)cc1Cl
T/C [12]: 94 % of control
T/C [13]: 92 % of control
T/C [14]: 91 % of control

Cc1ccc(NCC2(/N=C/c3ccccc3)OC(CO)C(O)C2O)cc1 (configuration not stated)
T/C [9]: 97 % of control
T/C [10]: 102 % of control
T/C [11]: 102 % of control

CCCCCCC(=O)/C=C/c1cccc(Cl)c1
T/C [5]: 88 % of control
T/C [6]: 88 % of control
T/C [7]: 95 % of control
